Results as given in PMC2962730 (Journal of neurochemistry, 2010).
Positions count from the first letter of the chain named.

Tests used:
hVAChT A334F = molecular target: T1, hVAChT A334F (Homo sapiens, UniProt Q16572, A334F); assay: [3H]vesamicol saturation binding; conditions: pH 7.4
T1 sequence (Q16572 1-532 A334F): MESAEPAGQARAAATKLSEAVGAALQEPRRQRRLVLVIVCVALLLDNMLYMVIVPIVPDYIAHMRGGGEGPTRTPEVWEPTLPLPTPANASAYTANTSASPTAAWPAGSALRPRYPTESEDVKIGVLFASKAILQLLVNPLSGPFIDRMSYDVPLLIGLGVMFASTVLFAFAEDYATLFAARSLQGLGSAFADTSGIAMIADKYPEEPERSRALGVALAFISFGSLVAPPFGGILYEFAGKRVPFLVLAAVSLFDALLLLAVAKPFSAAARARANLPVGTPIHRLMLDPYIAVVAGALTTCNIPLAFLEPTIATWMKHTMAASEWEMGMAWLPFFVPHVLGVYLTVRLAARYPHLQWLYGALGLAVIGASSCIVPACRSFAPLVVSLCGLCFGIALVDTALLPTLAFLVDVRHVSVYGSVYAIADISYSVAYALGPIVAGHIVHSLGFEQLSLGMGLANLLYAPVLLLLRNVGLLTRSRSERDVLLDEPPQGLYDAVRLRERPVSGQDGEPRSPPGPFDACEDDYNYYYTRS

VAChT F335A = conditions: ref Ojeda et al. (2004); cited from earlier work
VAChT C391Y = conditions: ref Zhu et al. (2001); cited from earlier work
hVAChT Y60H = molecular target: T2, hVAChT Y60H (Homo sapiens, UniProt Q16572, Y60H); assay: [3H]vesamicol saturation binding; conditions: pH 7.4
T2 sequence (Q16572 1-532 Y60H): T1 sequence (Q16572 1-532 A334F) with Y60H, F334A

hVAChT A321F = molecular target: T3, hVAChT A321F (Homo sapiens, UniProt Q16572, A321F); assay: [3H]ACh transport; format: biochemical
T3 sequence (Q16572 1-532 A321F): T1 sequence (Q16572 1-532 A334F) with A321F, F334A

hVAChT wild-type = molecular target: T4, hVAChT wild-type (Homo sapiens, UniProt Q16572); assay: ACh equilibrium binding by competition against [3H]vesamicol; conditions: WT hVAChT; pH 7.4
T4 sequence (Q16572 1-532): T1 sequence (Q16572 1-532 A334F) with F334A

hVAChT M320A = molecular target: T5, hVAChT M320A (Homo sapiens, UniProt Q16572, M320A); assay: as above
T5 sequence (Q16572 1-532 M320A): T1 sequence (Q16572 1-532 A334F) with M320A, F334A

Row | SMILES | Bmax, maximal specific [3H]vesamicol binding (VAChT expression level) (hVAChT A334F) [pmol/mg] | weaker binding of vesamicol (VAChT F335A) | vesamicol binding (VAChT C391Y) | Bmax, maximal specific [3H]vesamicol binding (VAChT expression level) (hVAChT Y60H) [pmol/mg] | Vmax/Bmax, ACh transport normalized to Bmax (hVAChT A321F; pH 7.4) [min⁻¹] | Km (hVAChT A321F; read-out: KM, Michaelis-Menten constant for ACh transport, pH 7.4) [µM] | FHA, fraction of the ACh sites that have high affinity (hVAChT wild-type) | Kd (hVAChT M320A) [mM] | FHA, fraction of the ACh sites that have high affinity (hVAChT M320A; M320A hVAChT, pH 7.4)
1 | O[C@@H]1CCCC[C@H]1N1CCC(c2ccccc2)CC1 (racemic) [vesamicol, ( )-trans-2-(4-phenylpiperidino)cyclohexanol] | 13 ± 1 | ~ 3 fold | does not bind vesamicol | 15 ± 1 |  |  |  |  | 
2 | CC(=O)OCC[N+](C)(C)C [ACh, acetylcholine] |  |  |  |  | 6.0 ± 0.5 | 350 ± 100 | 0.82 ± 0.04 | 9.2 ± 0.8 | 0.73 ± 0.11
